What all share (assay): relative viability (nuclei count vs DMSO), 5 days (fraction); higher = more cells survive
Compound in the assay “Salubrinal + Vorinostat”: O=C(/C=C/c1ccccc1)NC(NC(=S)Nc1cccc2cccnc12)C(Cl)(Cl)Cl [Salubrinal] + O=C(CCCCCCC(=O)Nc1ccccc1)NO [Vorinostat] (partner 1 µM)
The method, boiled down: (§1)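 Lung cancer cell lines were pin-tool dosed in 1536-well plates on the day after seeding, with either a lone drug or a fixed anchor-drug dose plus five library-drug doses (not always all listed) in √10 steps. Nuclei were counted on 4× images after 5 days. Relative viability is the ratio of treated-well to vehicle-well nuclei counts, with each value a median of duplicate plates.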

Compound in assay [1]: Cc1ccc2nc(NCCN)c3ncc(C)n3c2c1 + N=C(N)NC(=N)NCCc1ccccc1 [Phenformin] (partner 250 µM)
The procedure, abridged:
as §1

Compound in assay [2]: Cc1ccc2nc(NCCN)c3ncc(C)n3c2c1 + CC(=O)Nc1cccc(-n2c(=O)n(C3CC3)c(=O)c3c(Nc4ccc(I)cc4F)n(C)c(=O)c(C)c32)c1 [Trametinib] (partner 0.02 µM)
The method, boiled down:
as §1

Compound in assay [3]: Cc1ccc2nc(NCCN)c3ncc(C)n3c2c1 + Cc1nc(NC(=O)N2CCC[C@H]2C(N)=O)sc1-c1ccnc(C(C)(C)C(F)(F)F)c1 [Alpelisib] (partner 2 µM)
The procedure, abridged: as §1

Here are results for 6 cell lines from the supplement of paper PMC10307832.

In the case of PC-3 [JPC-3], the relative viability stood at 0.713 with Salubrinal + Vorinostat (first compound 0.08 µM); 0.71 with Salubrinal + Vorinostat (first compound 0.253 µM); 1.07 in the assay with Salubrinal + Vorinostat (first compound 0.8 µM); 0.934 with Salubrinal + Vorinostat (first compound 2.53 µM); 0.762 with Salubrinal + Vorinostat (first compound 8 µM); 0.503 in assay [1] (first compound 0.04 µM). Further, the relative viability in assay [1] (first compound 0.1265 µM) was 0.475; in assay [1] (first compound 0.4 µM), 0.459; in assay [1] (first compound 1.265 µM), 0.497; in assay [1] (first compound 4 µM), 0.423; in assay [2] (first compound 0.04 µM), 0.656; in assay [2] (first compound 0.1265 µM), 0.738. For the same cell line, the relative viability in assay [2] (first compound 0.4 µM) was determined as 0.62; in assay [2] (first compound 1.265 µM), 0.601; in assay [2] (first compound 4 µM), 0.529; in assay [3] (first compound 0.04 µM), 1.03; in assay [3] (first compound 0.1265 µM) it was 1.08; in assay [3] (first compound 0.4 µM) it was 1.05. In addition, the relative viability in assay [3] (first compound 1.265 µM) came to 0.983; in assay [3] (first compound 4 µM), 1.03.
In the case of PC-14, the relative viability in the assay with Salubrinal + Vorinostat (first compound 0.08 µM) was 0.719; in the assay with Salubrinal + Vorinostat (first compound 0.253 µM) it was 0.585; with Salubrinal + Vorinostat (first compound 0.8 µM), 0.672; in the assay with Salubrinal + Vorinostat (first compound 2.53 µM), 0.645; with Salubrinal + Vorinostat (first compound 8 µM), 0.5; in assay [1] (first compound 0.04 µM), 0.535. Moreover, the relative viability in assay [1] (first compound 0.1265 µM) is 0.69; in assay [1] (first compound 0.4 µM), 0.431; in assay [1] (first compound 1.265 µM), 0.607; in assay [1] (first compound 4 µM) it was 0.254; in assay [2] (first compound 0.04 µM) it was 0.779; in assay [2] (first compound 0.1265 µM), 0.706. The relative viability in assay [2] (first compound 0.4 µM) amounted to 0.742; in assay [2] (first compound 1.265 µM) it was 0.647; in assay [2] (first compound 4 µM) it was 0.327; in assay [3] (first compound 0.04 µM) it was 1.03; in assay [3] (first compound 0.1265 µM), 0.893; in assay [3] (first compound 0.4 µM), 0.92. The relative viability in assay [3] (first compound 1.265 µM) was determined as 0.896; in assay [3] (first compound 4 µM), 0.806.
Turning to RERF-LC-KJ, the relative viability with Salubrinal + Vorinostat (first compound 0.08 µM) amounted to 0.784; in the assay with Salubrinal + Vorinostat (first compound 0.253 µM), 0.642; with Salubrinal + Vorinostat (first compound 0.8 µM), 0.745; with Salubrinal + Vorinostat (first compound 2.53 µM), 0.673; in the assay with Salubrinal + Vorinostat (first compound 8 µM) it was 0.721; in assay [1] (first compound 0.04 µM), 0.404. For the same cell line, the relative viability in assay [1] (first compound 0.1265 µM) amounted to 0.374; in assay [1] (first compound 0.4 µM), 0.462; in assay [1] (first compound 1.265 µM) it was 0.453; in assay [1] (first compound 4 µM), 0.353; in assay [2] (first compound 0.04 µM), 0.857; in assay [2] (first compound 0.1265 µM), 0.805. For the same cell line, the relative viability in assay [2] (first compound 0.4 µM) came to 0.888; in assay [2] (first compound 1.265 µM), 0.86; in assay [2] (first compound 4 µM) it was 0.828; in assay [3] (first compound 0.04 µM), 0.843; in assay [3] (first compound 0.1265 µM) it was 0.769; in assay [3] (first compound 0.4 µM) it was 0.784. The relative viability worked out at 0.762 in assay [3] (first compound 1.265 µM) and 0.81 in assay [3] (first compound 4 µM).
For SK-LU-1, the relative viability was found to be 0.754 in the assay with Salubrinal + Vorinostat (first compound 0.08 µM); 0.668 with Salubrinal + Vorinostat (first compound 0.253 µM); 0.996 with Salubrinal + Vorinostat (first compound 0.8 µM); 0.779 with Salubrinal + Vorinostat (first compound 2.53 µM); 0.664 in the assay with Salubrinal + Vorinostat (first compound 8 µM); 0.649 in assay [1] (first compound 0.04 µM). For the same cell line, the relative viability in assay [1] (first compound 0.1265 µM) was determined as 0.568; in assay [1] (first compound 0.4 µM), 0.614; in assay [1] (first compound 1.265 µM), 0.553; in assay [1] (first compound 4 µM), 0.43; in assay [2] (first compound 0.04 µM) it was 0.427; in assay [2] (first compound 0.1265 µM), 0.509. In addition, the relative viability in assay [2] (first compound 0.4 µM) stood at 0.478; in assay [2] (first compound 1.265 µM) it was 0.546; in assay [2] (first compound 4 µM), 0.462; in assay [3] (first compound 0.04 µM), 1.11; in assay [3] (first compound 0.1265 µM), 0.961; in assay [3] (first compound 0.4 µM), 1.1. Besides, the relative viability in assay [3] (first compound 1.265 µM) worked out at 1.01; in assay [3] (first compound 4 µM) it was 0.937.
In the case of SK-MES-1, the relative viability in the assay with Salubrinal + Vorinostat (first compound 0.08 µM) was found to be 1.35; in the assay with Salubrinal + Vorinostat (first compound 0.253 µM), 1; in the assay with Salubrinal + Vorinostat (first compound 0.8 µM), 1.28; in the assay with Salubrinal + Vorinostat (first compound 2.53 µM) it was 1.1; in the assay with Salubrinal + Vorinostat (first compound 8 µM) it was 0.936; in assay [1] (first compound 0.04 µM), 0.688. The relative viability in assay [1] (first compound 0.1265 µM) came to 0.624; in assay [1] (first compound 0.4 µM), 0.69; in assay [1] (first compound 1.265 µM), 0.65; in assay [1] (first compound 4 µM), 0.605; in assay [2] (first compound 0.04 µM), 0.545; in assay [2] (first compound 0.1265 µM), 0.556. Also, the relative viability in assay [2] (first compound 0.4 µM) came out at 0.539; in assay [2] (first compound 1.265 µM) it was 0.594; in assay [2] (first compound 4 µM) it was 0.573; in assay [3] (first compound 0.04 µM), 0.904; in assay [3] (first compound 0.1265 µM), 0.848; in assay [3] (first compound 0.4 µM) it was 0.846. For the same cell line, the relative viability in assay [3] (first compound 1.265 µM) is 0.866; in assay [3] (first compound 4 µM) it was 0.848.
Take SW 1573: the relative viability with Salubrinal + Vorinostat (first compound 0.08 µM) was 0.852; with Salubrinal + Vorinostat (first compound 0.253 µM), 0.686; in the assay with Salubrinal + Vorinostat (first compound 0.8 µM), 0.778; with Salubrinal + Vorinostat (first compound 2.53 µM) it was 0.55; with Salubrinal + Vorinostat (first compound 8 µM) it was 0.62; in assay [1] (first compound 0.04 µM) it was 0.371. The relative viability in assay [1] (first compound 0.1265 µM) was 0.368; in assay [1] (first compound 0.4 µM), 0.395; in assay [1] (first compound 1.265 µM), 0.424; in assay [1] (first compound 4 µM) it was 0.231; in assay [2] (first compound 0.04 µM), 0.584; in assay [2] (first compound 0.1265 µM), 0.6. Further, the relative viability in assay [2] (first compound 0.4 µM) is 0.602; in assay [2] (first compound 1.265 µM) it was 0.612; in assay [2] (first compound 4 µM) it was 0.306; in assay [3] (first compound 0.04 µM) it was 0.81; in assay [3] (first compound 0.1265 µM), 0.667; in assay [3] (first compound 0.4 µM), 0.871. The values for the relative viability in assay [3] (first compound 1.265 µM) and in assay [3] (first compound 4 µM) were 0.572 and 0.676, respectively.
